In US20080194585A1, “Fungicidal Pyrazine Derivatives” (priority 2005, published 2008):
Marks after values point to notes of the source that are not given here.

Columns and labels:
Rhizoctonia oryzae = assay: Test G: turf brown patch, preventive spray on creeping bent grass seedlings
Procedure: (the causal agent of turf brown patch) and incubated in a saturated atmosphere at 27° C. for 24 h, and then moved to a growth chamber at 27° C. for 5 days, after which disease ratings were made.

Plasmopara viticola = assay: Test D: grape downy mildew, spray after inoculation of grape seedlings; assay type: in vivo
Excerpt: Upon removal, disease ratings were made. […] A dash (-) indicates no test results.

Septoria nodorum = assay: Test H: wheat glum blotch, preventive spray on wheat seedlings
Procedure: (the causal agent of wheat glum blotch) and incubated in a saturated atmosphere at 20° C. for 48 h, and then moved to a growth chamber at 22° C. for 5 days, after which disease ratings were made.

Septoria tritici = assay: Test J: wheat leaf blotch, preventive spray on wheat seedlings; assay type: in vivo
Excerpt: A dash (-) indicates no test results.

Botrytis cinerea = assay: Test E: tomato botrytis, preventive spray on tomato seedlings
[1] = test system: Colletotrichum orbiculare; assay: Test B: cucumber Colletotrichum anthracnose, preventive spray on cucumber seedlings
Phytophthora infestans = assay: whole plant or invertebrate; assay type: in vivo
[2] = test system: Puccinia recondita f. sp. tritici; assay: Test K: wheat leaf rust, preventive spray on wheat seedlings
Sclerotinia sclerotiorum = assay: Test C: cucumber white mold, preventive spray on cucumber seedlings
Pythium aphanidermatum = assay: Test A: bluegrass pythium blight, preventive spray on bluegrass seedlings
fusarium graminearium = assay: Test I: wheat head scab, preventive spray on wheat seedlings
Procedure: (the causal agent of wheat head scab) and incubated in a saturated atmosphere at 20° C. for 72 h, and then moved to a growth chamber at 22° C. for 5 days, after which disease ratings were made.

[3] = test system: Erysiphe graminis f. sp. tritici; assay: Test L: wheat powdery mildew, preventive spray on wheat seedlings
[4] = 200 ppm, 100 = 100% disease control, 0 = no control

Compound | Test G disease control rating (Rhizoctonia oryzae; 200 ppm) | Test D disease control rating (Plasmopara viticola; 200 ppm) | Test H disease control rating (Septoria nodorum; 200 ppm) | Test E disease control rating (Botrytis cinerea; 200 ppm) | Test B disease control rating ([1]; 200 ppm) | Test F disease control rating (Phytophthora infestans; 200 ppm) | Test K disease control rating ([2]; 200 ppm) | Test C disease control rating (Sclerotinia sclerotiorum; 200 ppm) | Test A disease control rating (Pythium aphanidermatum; 200 ppm) | Test I disease control rating (fusarium graminearium; 200 ppm) | Test L disease control rating ([3]; 200 ppm) | further results
CCC(C)Cn1c(-c2ccc(F)cc2Cl)c(Cl)nc(-n2ccc(Br)n2)c1=O (racemic) [compound 259] |  |  |  |  |  |  |  |  |  |  |  | Test G disease control rating (Rhizoctonia oryzae; [4]): 16%; Test D disease control rating (Plasmopara viticola; [4]): 0%; Test H disease control rating (Septoria nodorum; [4]): 0%; Test J disease control rating (Septoria tritici; [4]): 100%; Test E disease control rating (Botrytis cinerea; [4]): 100%; Test B disease control rating [1, 4]: 94%; Test F disease control rating (Phytophthora infestans; [4]): 0%; Test K disease control rating [2, 4]: 89%; Test C disease control rating (Sclerotinia sclerotiorum; [4]): 0%; Test A disease control rating (Pythium aphanidermatum; [4]): 82%; Test I disease control rating (fusarium graminearium; [4]): 0%; Test L disease control rating [3, 4]: 59%
CC(C)Cn1c(-c2c(F)cccc2F)c(Cl)nc(-c2cn(C)cn2)c1=O [Compound 85, 5-Chloro-6-(2,6-difluorophenyl)-1-(2-methylpropyl)-3-(1-methyl-1H-imidazol-4-yl)-2(1H)-pyrazinone] |  |  |  |  |  |  |  |  |  |  |  | pest or weed control at 200 ppm (Plasmopara viticola; Plasmopara viticola, 168 h, 200 ppm, read-out: Test D disease control rating): 0%; pest or weed control at 200 ppm (Septoria nodorum; Parastagonospora nodorum, in Triticum aestivum, topical, 168 h, read-out: Test H disease control rating, 200 ppm): 97%; pest or weed control at 200 ppm (Septoria tritici; Zymoseptoria tritici, 528 h, 200 ppm, read-out: Test J disease control rating): 100%; pest or weed control at 200 ppm (Botrytis cinerea; Botrytis cinerea, in Solanum lycopersicum, topical, 72 h, read-out: Test E disease control rating): 100%; pest or weed control at 200 ppm ([1]; Colletotrichum orbiculare, in Cucumis sativus, 144 h, read-out: Test B disease control rating, 200 ppm): 80%; pest or weed control at 200 ppm (Phytophthora infestans; Phytophthora infestans, in Solanum lycopersicum, topical, 144 h, read-out: Test F disease control rating): 0%; pest or weed control at 200 ppm ([2]; Puccinia recondita, in Triticum aestivum, 192 h, read-out: Test K disease control rating): 99%; pest or weed control at 200 ppm (Sclerotinia sclerotiorum; Sclerotinia sclerotiorum, in Cucumis sativus, 168 h, read-out: Test C disease control rating, 200 ppm): 95%; pest or weed control at 200 ppm (Pythium aphanidermatum; Pythium aphanidermatum, 120 h, read-out: Test A disease control rating): 0%; pest or weed control at 200 ppm (fusarium graminearium; Fusarium, in Triticum aestivum, topical, 192 h, read-out: Test I disease control rating, 200 ppm): 55%; pest or weed control at 200 ppm ([3]; Blumeria graminis, in Triticum aestivum, 168 h, read-out: Test L disease control rating, 200 ppm): 0%
CC(C)Cn1c(-c2c(Cl)cccc2Cl)c(Cl)nc(-n2cncn2)c1=O [compound 40] | 65% | 0% | 99% | 100% | 0% | 0% | 99% | 0% | 0% | 0% | 21% | 
CC(C)Cn1c(-c2cccc(Cl)c2Cl)c(Cl)nc(-n2cccn2)c1=O [compound 41] | 47% | 8% | 100% | 100% | 68% | 0% | 83% | 98% | 0% | 0% | 0% | 
CC(C)Cn1c(-c2cc(Cl)cc(Cl)c2)c(Cl)nc(-n2cccn2)c1=O [compound 42] | 0% | 0% | 0% | 0% | 0% | 0% | 0% | 0% | 0% | 60% | 0% | 
CC(C)Cn1c(-c2ccc(Cl)cc2F)c(Cl)nc(-n2cncn2)c1=O [compound 44] |  |  |  |  |  |  |  |  |  |  |  | Test G disease control rating (Rhizoctonia oryzae; 40 ppm (*)): 16* %; Test D disease control rating (Plasmopara viticola; 40 ppm (*)): 0* %; Test H disease control rating (Septoria nodorum; 40 ppm (*)): 0* %; Test E disease control rating (Botrytis cinerea; 40 ppm (*)): 95* %; Test B disease control rating ([1]; 40 ppm (*)): 0* %; Test F disease control rating (Phytophthora infestans; 40 ppm (*)): 0* %; Test K disease control rating ([2]; 40 ppm (*)): 0* %; Test C disease control rating (Sclerotinia sclerotiorum; 40 ppm (*)): 0* %; Test A disease control rating (Pythium aphanidermatum; 40 ppm (*)): 0* %; Test I disease control rating (fusarium graminearium; 40 ppm (*)): 0* %; Test L disease control rating ([3]; 40 ppm (*)): 0* %
CC(C)Cn1c(-c2ccc(C(F)(F)F)cc2F)c(Cl)nc(-n2cccn2)c1=O [compound 46] | 0% | 0% | 0% | 0% | 0% | 0% | 0% | 0% | 0% | 78% | 0% | 
CC(C)=NNc1nc(Cl)c(-c2c(F)cccc2F)n(CC(C)C)c1=O [compound 48] | 16% | 0% | 0% | 83% | 0% | 0% | 80% | 0% | 0% | 0% | 0% | 
COc1nc(-n2cccn2)c(=O)n(C2CCCCC2)c1-c1c(F)cccc1F [compound 49] | 16% | 8% | 0% | 47% | 0% | 0% | 0% | 0% | 0% | 0% | 21% | 
CC(C)Cn1c(-c2ccc(F)cc2Cl)c(Cl)nc(-n2cncn2)c1=O [compound 51] | 31% | 0% | 100% | 100% | 98% | 0% | 100% | 99% | 0% | 94% | 63% | 
CC(C)Cn1c(-c2cccc(F)c2F)c(Cl)nc(-n2cncn2)c1=O [compound 52] | 16% | 0% | 98% | 98% | 0% | 0% | 74% | 90% | 0% | 0% | 21% | 
CC(C)Cn1c(-c2cc(F)ccc2F)c(Cl)nc(-n2cncn2)c1=O [compound 54] | 84% | 0% | 90% | 100% | 0% | 0% | 98% | 92% | 0% | 0% | 0% | 
CC(C)Cn1c(-c2c(F)ccc(F)c2F)c(Cl)nc(-n2cncn2)c1=O [compound 55] | 96% | 0% | 95% | 100% | 0% | 0% | 99% | 85% | 0% | 78% | 0% | 
CCC(C)Cn1c(-c2c(F)cccc2F)c(Cl)nc(-n2ccnc2C)c1=O (stereo not drawn) [compound 69] |  | 0% |  |  |  | 0% |  | 0% | 0% | 0% |  | Test G disease control rating (Rhizoctonia oryzae; 40 ppm (*)): 0* %; Test H disease control rating (Septoria nodorum; 40 ppm (*)): 0* %; Test J disease control rating (Septoria tritici; 40 ppm (*)): 62* %; Test E disease control rating (Botrytis cinerea; 40 ppm (*)): 0* %; Test K disease control rating ([2]; 40 ppm (*)): 61* %; Test L disease control rating ([3]; 40 ppm (*)): 0* %
CC(C)Cn1c(-c2c(F)cccc2F)c(Cl)nc(-c2cncn2C)c1=O [compound 83] |  | 0% | 0% | 0% | 9% | 47% | 79% | 64% | 0% | 0% | 0% | Test J disease control rating (Septoria tritici; 200 ppm): 18%
CC(C)Cn1c(-c2ccc3ccccc3c2)c(Cl)nc(-n2cccn2)c1=O [compound 90] |  | 16% | 0% | 0% | 0% | 0% | 0% | 63% | 0% | 0% | 0% | Test J disease control rating (Septoria tritici; 200 ppm): 0%
